{
  "source": "patent US20260041773A1",
  "about": "“TOPICAL COMPOSITION COMPRISING A PROSTAGLANDIN ANALOGUE” (DERMALIQ THERAPEUTICS, INC., priority 2019, published 2026)",
  "key": {"[1]": {"assay": "Penetration of cortexolone 17α-propionate, Franz Diffusion Cells", "format": "in vitro ADME", "conditions": "1% (w/w) CB-03-01 in F4H5", "procedure": "Cortexolone 17α-propionate (developmental code name CB-03-01; 21-Hydroxy-3,20-dioxopregn-4-en-17-yl propionate; CAS Registry Number: 19608-29-8) was dissolved in 1-perfluorbutylpentane (F4H5) to result in a solution of 1% (w/w) CB-03-01 in F4H5."}, "[2]": {"assay": "Penetration of latanoprost into minipig skin punches with and without hair (Franz Diffusion Cells, HPLC)", "format": "in vitro ADME, Gottingen minipig", "conditions": "2 hours incubation", "procedure": "Biological material: abdominal and dorsal full skin, R1 and part of L1 region, of 5 months old Gottingen minipig skin.\nFor the incubation experiments, Franz Diffusion Cells (FDC) having an inner diameter of 15 mm and an acceptor volume of 12 ml were used. Donor and acceptor chambers were made of glass.\nTwelve frozen full thickness skin disks were punched with a diameter of 30 mm. After complete defrosting and equilibration to room temperature, the punches were clamped into Franz diffusion cells (FDC). Each skin disc was dried with wipes, clamped in between the corresponding FDCs having an inner diameter of 15 mm (1.767 cm^2 skin diffusion area) and an acceptor volume of approximately 12 ml. The receiver compartment of the cells was filled with PBS (phosphate buffered saline). Incubation was started by addition of 800 […]1 of test formulation 1-3. […]\nOut of each skin disc, 20 skin discs having a diameter of 2 mm were obtained by punching with a disposable biopsy punch, which was put on top of the skin and pressed through the full thickness of the skin. […] The ten punches with hair and without hair obtained by each disc were placed respectively in pre-weighed tubes and the weight was determined. […]\nVia HPLC analysis, the amount of latanoprost penetrated in the skin disks after incubation with the test formulations and the amount of latanoprost acid were evaluated and are illustrated in the FIGS. 1-3."}, "[3]": {"assay": "Penetration of latanoprost solution in hair roots of pig's eyelashes (eyelid incubation, HPLC)", "format": "in vitro ADME", "procedure": "Test formulation: 0.5 mg/ml latanoprost (Yonsung, Purity 100,2%) in 1-perfluorobutylpentane (Novaliq) and 1% v/v ethanol (Merck, Secco solve dried).\nBiological material: fresh pig's eyes with eyelids, not in buffer solution during transport from the slaughterhouse to the laboratory.\nThe upper eyelids were separated from the eye with scissors, forceps and scalpel. Each eyelid was placed in a glass vessel and incubation with the test formulation was started by addition of 1 ml of formulation. Since the eyelashes had different lengths, before incubation the eyelashes were shortened to standardise the incubation procedure. After incubation according to the plan in Table 3, the eyelids were washed with 1-perfluorobutylpentane eight times and eyelashes were plucked and weighted, as shown in Table 3.\nAfter plucking of the eyelashes, the eyelids were punched with a 4 mm (0,126 cm^2) biopsy tool 5 times (total area 0,628 cm^2). The skin and the conjunctiva were then separated.\nExtraction via addition of […] ACN (acetonitrile) to each sample at room temperature on orbital shaker (150 rpm) and minirotator (Biosan maximum level) for 2 hours. Then the samples were centrifuged for 5 minutes at 13000 rpm. The supernatant collected from the samples was stored at −20° C. till analysis.\nThe amount of latanoprost and of the bio transformed latanoprost acid in the tissues and eyelashes were determined via HPLC. For the calculation, the mean assay values for latanoprost acid were corrected with a factor of 1,1 as the molecular weight of latanoprost acid is lower than the weight of latanoprost."}},
  "data": [
    {"compound": "CCC(=O)O[C@]1(C(=O)CO)CC[C@H]2[C@@H]3CCC4=CC(=O)CC[C@]4(C)[C@H]3CC[C@@]21C", "note": "[cortexolone 17α-propionate, 21-Hydroxy-3,20-dioxopregn-4-en-17-yl propionate]", "values": [
      {"measurement": "amount found in the dermis", "setting": "[1]", "value": "especially high amounts of cortexolone 17α-propionate were found in the dermis"},
      {"measurement": "delivery to layers of the skin", "setting": "[1]; stratum corneum, epidermis and dermis", "value": "effectively and rapidly delivered to layers of the skin"}
    ]},
    {"compound": "CC(C)OC(=O)CCC/C=C\\C[C@@H]1[C@@H](CC[C@@H](O)CCc2ccccc2)[C@H](O)C[C@@H]1O", "note": "[latanoprost]", "values": [
      {"measurement": "uptake of latanoprost, skin punches with hair vs without hair", "setting": "[2]; FIG. 1, microgram per cm^2", "value": "higher for skin punches with hair than for skin punches without hair"},
      {"measurement": "content of latanoprost acid, punches with hair vs without hair", "setting": "[2]; FIG. 2", "value": "higher content of latanoprost acid than punches without hair"},
      {"measurement": "latanoprost acid in eyelashes", "setting": "[3]; 25 hours incubation, FIG. 5", "value": "a small amount of latanoprost acid was detected"},
      {"measurement": "amount of latanoprost in eyelashes", "setting": "[3]; FIG. 4, 2, 15, 25 hrs", "value": "preferred affinity to the eyelashes"},
      {"measurement": "amount of latanoprost in skin parts", "setting": "[3]; FIG. 4, compared with eyelashes", "value": "Comparable lower amount of latanoprost were detected in the skin parts"}
    ]}
  ]
}
